A short description of data set [1]: Enhancement of insulin uptake after powder inhalation in a rat model (blood glucose). The data set is classed as in vivo, rats. The following applies: for enhancement of polypeptide (insulin) absorption in the lung: rat model of Example 2, substance tested as enhancer; for Effect (decrease in blood glucose level): rats, inhaled powder.
Protocol: Each of the compounds listed in Table I was tested for its ability to enhance uptake of a polypeptide (insulin) in a rat model.
Various forms of insulin were employed in the different trials: recombinant human, semisynthetic human or bovine. Each formulation was prepared as above, drying and processing the insulin/enhancer or insulin/enhancer/lactose solution to produce an inhalable powder. The powder was administered to rats by inhalation, and the blood glucose levels of the rats were subsequently monitored as a measure of insulin uptake. These levels were compared to the corresponding values obtained from rats which had inhaled insulin formulations without enhancer.
Data set [2] concerns CaCo-2 epithelial cell monolayer. The data set can be described thus: CaCo-2 epithelial cell monolayer transport assay. The following applies: for transport rate across the monolayer: CaCo-2, up to 16 mM sodium caprate. The data set is classed as in vitro ADME. As for the experimental part:
A standard in vitro assay utilizing an epithelial cell line, CaCo-2 (available through the American Type Culture Collection (ATCC), Rockville, Md., USA), has been developed to assess the ability of various enhancer compounds to promote transport of markers across an epithelial cell monolayer, as a model for the epithelial cell layer which functions in the lung to separate the alveolus from the pulmonary blood supply.
In this assay, the enhancer and polypeptide or other marker are dissolved in aqueous solution at various proportions and/or concentrations, and applied to the apical side of the cell monolayer. After 60 min incubation at 37° C. and 95% RH (relative humidity), the amount of the marker on the basolateral side of the cells is determined, e.g., by use of a radioactively labelled marker.

Details of data set [3]: species or system rats. The settings on record: rat, in vivo. As for the experimental part:
The mixture was milled in a Retsch mechanical mill to a particle size of mass median diameter 6.7 μm. The resultant powder was administered intratraceally in rats and the uptake of hGH compared with that of a powder, MMD 9.6 μm, comprising hGH and mannitol in the same proportions and prepared in the same way as above.

[4] abbreviates: Enhancer:Insulin:lactose 4:4:92, vs insulin without enhancer.
Setting [5] is: Enhancer:Insulin:lactose 25:75:0, vs insulin without enhancer.
The mark [6] stands for this setting: Enhancer:Insulin:lactose 2:4:94, vs insulin without enhancer.

These results are taken from patent US6632456B1, “Compositions for inhalation” (AstraZeneca AB, priority 1994, dated 2003).

Where a name gives a salt, the structure may show the parent alone.

Turning to Lysophosphatidylcholine, the “enhancement of polypeptide (insulin) absorption in the lung” value (from here on “enhancement of polypeptide”) in data set [1] is “effective enhancer”. Besides, the “Effect (decrease in blood glucose level)” value in data set [1] (setting [4]) is given as “+”. Consider `CCCCCCCCCCCCCC(=O)[O-].[Na+]` [Sodium myristate], for which the “enhancement of polypeptide” value in data set [1] is “perform well”. Also, the “Effect (decrease in blood glucose level)” value in data set [1] (Enhancer:Insulin:lactose 30:70:0, vs insulin without enhancer) is recorded as “+”.

Take `CCCCCCCCCC(=O)[O-].[Na+]` [Sodium caprate]: the “amount of marker (mannitol) which appears on the basolateral side, insulin added” value in data set [2] (CaCo-2 monolayer, 1:3 sodium caprate:insulin by weight (FIG. 2)) is listed as “This is true”. Further, the “amount of marker (mannitol) which appears on the basolateral side” value in data set [2] (CaCo-2 monolayer, 60 min, 37° C., up to 16 mM sodium caprate (FIG. 1)) was “dependent upon the concentration of enhancer used”. Also, in data set [1], the “enhancement of polypeptide” value is given as “perform well”. Further, the “Effect (decrease in blood glucose level)” value is recorded as “+” in data set [1] (setting [4]); “(+)” in data set [1] (Enhancer:Insulin:lactose 10:90:0, vs insulin without enhancer); “(+)” in data set [1] (Enhancer:Insulin:lactose 17.5:82.5:0, vs insulin without enhancer); “+” in data set [1] (setting [5]). `CCCCCCCCCC(=O)[O-].[K+]` [Potassium caprate]: in data set [1], the “enhancement of polypeptide” value was “effective”. In data set [1] (Enhancer:Insulin:lactose 27:73:0, vs insulin without enhancer), the “Effect (decrease in blood glucose level)” value is on record as “+”.

On to Dimethyl-β-cyclodextrin, for which the “enhancement of polypeptide” value in data set [1] is “absorption enhancing effect”. Further, in data set [1] (Enhancer:Insulin:lactose 75:25:0, vs insulin without enhancer), the “Effect (decrease in blood glucose level)” value is on record as “+”. `CCCCCCCCCCCC(=O)[O-].[Na+]` [Sodium laurate]: the “enhancement of polypeptide” value in data set [1] was “perform well”. Moreover, the “Effect (decrease in blood glucose level)” value in data set [1] (setting [5]) is “(+)”.

Regarding `O=C(O)CN(CCN(CC(=O)O)CC(=O)O)CC(=O)O` [sodium salt of ethylenediaminetetraacetic acid], the “enhancement of polypeptide” value in data set [1] is reported as “ineffective”. Turning to `CC(=O)OC1CC2(C)C(CC(O)C3C4(C)CCC(O)C(C)C4CCC32C)C1=C(CCCC(C)C)C(=O)NCCS(=O)(=O)O` (centres unmarked) [Sodium taurodihydrofusidate], the “enhancement of polypeptide” value in data set [1] is “effectively enhance polypeptide absorption in the lung”. Besides, in data set [1] (setting [6]), the “Effect (decrease in blood glucose level)” value is recorded as “+”.

Consider `CCCCCCCCCC(=O)OC[C@H](COP(=O)([O-])OCC[N+](C)(C)C)OC(=O)CCCCCCCCC` [Didecanoylphospatidylcholine], for which the “Effect (decrease in blood glucose level)” value in data set [1] (Enhancer:Insulin:lactose 4:4:94, vs insulin without enhancer) was “−”. Turning to `CCCCCCCC(=O)[O-].[Na+]` [Sodium caprylate], in data set [1] (setting [5]), the “Effect (decrease in blood glucose level)” value was “−”. As for `C[C@H](CCC(=O)NCC(=O)[O-])[C@H]1CC[C@H]2[C@@H]3[C@H](O)C[C@@H]4C[C@H](O)CC[C@]4(C)[C@H]3C[C@H](O)[C@]12C.[Na+]` [Sodium glycocholate], the “enhancement of polypeptide” value in data set [1] was “effectively enhance polypeptide absorption in the lung”. Also, in data set [1] (setting [4]), the “Effect (decrease in blood glucose level)” value is on record as “+”. In the same order, the values of `C[C@H](CCC(=O)NCCS(=O)(=O)O)[C@H]1CC[C@H]2[C@@H]3[C@H](O)C[C@@H]4C[C@H](O)CC[C@]4(C)[C@H]3C[C@H](O)[C@]12C` [Sodium taurocholate] are “effectively enhance polypeptide absorption in the lung” and “+”.

For the compound `C[C@H](CCC(=O)[O-])[C@H]1CC[C@H]2[C@@H]3[C@@H](O)C[C@@H]4C[C@H](O)CC[C@]4(C)[C@H]3CC[C@]12C.[Na+]` [Sodium ursodeoxycholate], in data set [1], the “enhancement of polypeptide” value is “effectively enhance polypeptide absorption in the lung”. For the same compound, in data set [1] (setting [4]), the “Effect (decrease in blood glucose level)” value is on record as “+”.

Lysine caprate: the “enhancement of polypeptide” value in data set [1] was “effective”. Further, in data set [1] (Enhancer:Insulin:lactose 35:65:0, vs insulin without enhancer), the “Effect (decrease in blood glucose level)” value is on record as “+”. On to carbonic anhydrase, for which the “transport rate across the monolayer” value in data set [2] is recorded as “no increase in transport rate”. “hGH: Human hormone (hGH, MW 22 kD, source Humatrope from Lilly), 3 parts mixed with sodium caprate (1 part), milled powder”: the “uptake of hGH” value in data set [3] is reported as “improvement in the uptake”. For cytochrome C, in data set [2], the “transport rate across the monolayer” value is given as “no increase in transport rate”. On to `CCCCCCCCOC1O[C@H](CO)[C@@H](O)[C@H](O)[C@H]1O` (some centres unmarked) [Octylglucopyranoside], for which, in data set [1], the “enhancement of polypeptide” value is on record as “some absorption enhancing properties”. Also, in data set [1] (setting [4]), the “Effect (decrease in blood glucose level)” value is on record as “(+)”. Turning to albumin, in data set [2], the “transport rate across the monolayer” value is reported as “no increase in transport rate”. In the case of `CCCCCCCC(=O)OCC(COP(=O)([O-])OCC[N+](C)(C)C)OC(=O)CCCCCCC` (centres unmarked) [Dioctanoylphosphatidylcholine], the “Effect (decrease in blood glucose level)” value in data set [1] (setting [6]) is “(+)”. Take `CCCCCCCC/C=C\CCCCCCCC(=O)[O-].[K+]` [Potassium oleate]: the “Effect (decrease in blood glucose level)” value in data set [1] (setting [4]) is recorded as “+”.
